# Test results as given in ChEMBL document CHEMBL1201862, “PubChem BioAssay data set” (2004).
# Structures can show the parent of a compound that is named as a salt. Activity calls are given as the source filed them.
# Assays:
# [1] = A Cell Based Secondary Assay To Explore Cytotoxicity of Compounds that Sensitize Mycobacterium Tuberculosis to Beta-Lactam Antibiotics.; type: functional
# [2] = target: Glutathione-S-transferase (Schistosoma japonicum, UniProt Q26513); assay: biotin-GST/anti-GST TR-FRET signal inhibitors, dose response, artefact control for Vif-APOBEC3G degradation inhibitor project, biochemical (AID 1117362); type: functional
# [3] = target: T1, Voltage-gated N-type calcium channel alpha-1B subunit/Amyloid beta A4 precursor protein-binding family A member 1 (Homo sapiens, UniProt Q00975+Q02410); type: protein assay
# T1 sequence (Q00975 whole entry): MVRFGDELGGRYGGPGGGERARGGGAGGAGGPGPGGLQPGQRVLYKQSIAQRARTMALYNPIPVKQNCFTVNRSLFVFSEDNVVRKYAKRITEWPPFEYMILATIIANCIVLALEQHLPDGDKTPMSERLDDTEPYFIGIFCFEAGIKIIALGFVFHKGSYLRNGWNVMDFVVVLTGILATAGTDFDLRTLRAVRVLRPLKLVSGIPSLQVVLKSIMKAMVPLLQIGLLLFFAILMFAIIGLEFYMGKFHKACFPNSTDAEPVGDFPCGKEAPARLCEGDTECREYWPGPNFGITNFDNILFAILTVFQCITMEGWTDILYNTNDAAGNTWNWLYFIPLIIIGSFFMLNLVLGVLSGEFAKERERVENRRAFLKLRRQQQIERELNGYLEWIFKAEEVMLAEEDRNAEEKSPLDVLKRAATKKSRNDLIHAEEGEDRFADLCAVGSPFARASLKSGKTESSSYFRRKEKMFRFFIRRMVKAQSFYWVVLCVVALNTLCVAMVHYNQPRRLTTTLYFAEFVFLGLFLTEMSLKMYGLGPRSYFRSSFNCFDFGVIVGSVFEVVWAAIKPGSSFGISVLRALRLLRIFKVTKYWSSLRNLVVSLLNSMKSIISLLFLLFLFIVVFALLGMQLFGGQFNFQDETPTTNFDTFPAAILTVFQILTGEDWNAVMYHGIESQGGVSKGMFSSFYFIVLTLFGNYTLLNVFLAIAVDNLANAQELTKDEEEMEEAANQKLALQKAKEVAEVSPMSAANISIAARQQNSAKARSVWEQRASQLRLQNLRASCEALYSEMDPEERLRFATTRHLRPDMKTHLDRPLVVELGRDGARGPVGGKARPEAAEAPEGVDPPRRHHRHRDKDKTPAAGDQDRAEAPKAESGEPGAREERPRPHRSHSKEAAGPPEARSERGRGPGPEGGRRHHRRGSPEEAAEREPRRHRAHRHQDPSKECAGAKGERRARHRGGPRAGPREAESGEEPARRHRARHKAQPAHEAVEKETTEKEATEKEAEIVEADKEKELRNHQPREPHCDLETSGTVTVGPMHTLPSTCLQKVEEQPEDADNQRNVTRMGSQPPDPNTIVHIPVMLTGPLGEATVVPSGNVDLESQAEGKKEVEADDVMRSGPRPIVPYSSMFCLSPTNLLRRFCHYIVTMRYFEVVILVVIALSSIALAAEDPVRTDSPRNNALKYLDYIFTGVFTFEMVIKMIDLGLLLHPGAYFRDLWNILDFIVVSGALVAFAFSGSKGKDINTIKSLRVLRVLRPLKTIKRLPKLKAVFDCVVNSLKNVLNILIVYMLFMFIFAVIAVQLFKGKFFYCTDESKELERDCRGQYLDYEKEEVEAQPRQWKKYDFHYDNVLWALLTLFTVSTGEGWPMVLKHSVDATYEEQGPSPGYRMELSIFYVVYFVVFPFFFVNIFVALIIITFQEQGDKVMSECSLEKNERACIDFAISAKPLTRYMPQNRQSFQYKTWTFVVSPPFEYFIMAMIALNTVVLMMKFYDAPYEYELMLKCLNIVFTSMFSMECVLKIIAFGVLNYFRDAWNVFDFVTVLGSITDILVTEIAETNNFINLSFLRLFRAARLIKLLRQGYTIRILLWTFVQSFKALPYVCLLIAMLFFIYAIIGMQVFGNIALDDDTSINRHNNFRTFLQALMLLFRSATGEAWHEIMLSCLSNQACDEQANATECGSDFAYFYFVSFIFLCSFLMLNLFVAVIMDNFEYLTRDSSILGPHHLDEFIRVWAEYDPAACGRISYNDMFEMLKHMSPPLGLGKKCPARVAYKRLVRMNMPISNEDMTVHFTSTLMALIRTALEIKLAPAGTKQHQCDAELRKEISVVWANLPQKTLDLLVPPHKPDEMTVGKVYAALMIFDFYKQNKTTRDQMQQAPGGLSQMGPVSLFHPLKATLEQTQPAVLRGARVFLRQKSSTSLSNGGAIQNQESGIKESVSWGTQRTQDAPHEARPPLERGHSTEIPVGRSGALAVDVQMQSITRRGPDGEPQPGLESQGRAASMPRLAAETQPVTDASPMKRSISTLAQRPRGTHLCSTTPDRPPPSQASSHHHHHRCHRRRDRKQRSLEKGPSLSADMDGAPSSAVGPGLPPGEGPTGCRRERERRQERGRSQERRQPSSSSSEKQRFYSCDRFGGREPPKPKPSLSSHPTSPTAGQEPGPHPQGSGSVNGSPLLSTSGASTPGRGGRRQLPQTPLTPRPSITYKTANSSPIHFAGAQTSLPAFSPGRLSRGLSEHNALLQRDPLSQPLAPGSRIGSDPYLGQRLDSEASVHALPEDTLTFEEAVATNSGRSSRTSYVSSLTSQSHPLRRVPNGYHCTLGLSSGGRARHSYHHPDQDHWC
# T1 sequence (Q02410 whole entry): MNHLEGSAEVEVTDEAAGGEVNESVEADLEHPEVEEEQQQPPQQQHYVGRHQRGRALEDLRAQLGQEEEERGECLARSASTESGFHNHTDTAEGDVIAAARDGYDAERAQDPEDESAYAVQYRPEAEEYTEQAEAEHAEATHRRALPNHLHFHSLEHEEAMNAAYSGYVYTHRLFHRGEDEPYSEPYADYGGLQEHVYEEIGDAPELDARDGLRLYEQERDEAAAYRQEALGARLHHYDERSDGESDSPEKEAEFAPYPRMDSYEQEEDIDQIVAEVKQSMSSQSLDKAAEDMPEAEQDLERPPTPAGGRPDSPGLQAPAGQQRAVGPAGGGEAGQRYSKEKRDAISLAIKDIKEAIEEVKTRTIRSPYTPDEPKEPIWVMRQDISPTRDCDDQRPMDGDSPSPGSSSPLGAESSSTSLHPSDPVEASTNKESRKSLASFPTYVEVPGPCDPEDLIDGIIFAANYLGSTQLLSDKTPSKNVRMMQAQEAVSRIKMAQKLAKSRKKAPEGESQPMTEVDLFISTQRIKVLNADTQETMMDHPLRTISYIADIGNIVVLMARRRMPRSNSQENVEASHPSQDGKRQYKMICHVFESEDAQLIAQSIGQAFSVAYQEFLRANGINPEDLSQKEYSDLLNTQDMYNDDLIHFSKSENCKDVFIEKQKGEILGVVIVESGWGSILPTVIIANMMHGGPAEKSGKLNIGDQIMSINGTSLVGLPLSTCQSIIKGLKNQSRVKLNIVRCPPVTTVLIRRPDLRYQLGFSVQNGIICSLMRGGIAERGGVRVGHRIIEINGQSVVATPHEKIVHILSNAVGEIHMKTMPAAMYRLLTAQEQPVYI
# [4] = target: T1, Voltage-gated N-type calcium channel alpha-1B subunit/Amyloid beta A4 precursor protein-binding family A member 1; type: protein assay; remark: listed apart in the source
# [5] = target: T1, Voltage-gated N-type calcium channel alpha-1B subunit/Amyloid beta A4 precursor protein-binding family A member 1; assay: disruptors of Mint-PDZ/N-type channel peptide interaction – biochemical, HTRF, SAR follow-up (AID 2489); type: functional
# Estrogen receptor beta = Estrogen receptor beta (Homo sapiens, UniProt Q92731); assay: ERβ–SRC-3 coactivator interaction inhibitors, confirmation, orthogonal assay, biochemical, ELISA, streptavidin-HRP readout (AID 1060)
# [6] = luciferase reporter signal reduction – luminescence, H4-C neuroglioblastoma cells, dose response (AID 2458); type: functional, cell-based;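 further: H4 neuroglioblastoma cells stably carrying a luciferase reporter gene fusion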
# [7] = inhibitors of firefly luciferase expression or activity, dose response, H4 neuroglioma cells, luminescence (AID 1990); type: functional, cell-based
# cells [8] = type: functional, cell-based
# [9] = inhibitors of SNCA 5'UTR-driven reporter translation, confirmation, H4 neuroglioma cells, luminescence (AID 1988); type: functional, cell-based
# [10] = inhibitors of SNCA 5'UTR-driven translation, confirmation, luminescence, H4 neuroglioblastoma cells, dose confirmation (AID 2454); type: functional, cell-based;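 further: H4 neuroglioblastoma cells carrying an alpha-synuclein 5'UTR luciferase reporter; potency for inhibition of the luciferase signal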
# [11] = Luminescence Cell-Based Dose Response HTS to Identify Inhibitors of 5'UTR Stem-Loop Driven Prion Protein mRNA Translation in H4 Neuroglioblastoma Cells. [Related pubchem assays: 1827 (Project Summary), 1813 (Primary HTS)]; type: functional
# [12] = target: DNA dC->dU-editing enzyme APOBEC-3A (Homo sapiens, UniProt P31941); assay: Dose Response confirmation of small molecule APOBEC3A DNA Deaminase Inhibitors via a fluorescence-based single-stranded DNA deaminase assay. [Related pubchem assays (depositor defined):AID493011, AID493024]; type: functional
# Chain of DNA dC->dU-editing enzyme APOBEC-3A (P31941 whole entry): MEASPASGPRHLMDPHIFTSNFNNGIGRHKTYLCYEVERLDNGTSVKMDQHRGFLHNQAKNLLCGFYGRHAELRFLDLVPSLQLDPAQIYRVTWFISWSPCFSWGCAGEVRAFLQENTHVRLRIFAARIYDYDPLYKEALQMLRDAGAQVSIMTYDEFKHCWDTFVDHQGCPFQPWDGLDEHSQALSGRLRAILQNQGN
# [13] = target: T2, Eukaryotic translation initiation factor 4H (Homo sapiens, UniProt Q15056); assay: human eIF4H binding inhibitors, primary screen, translation initiation inhibitor project, biochemical, uHTS, fluorescence polarization (AID 2012)
# [14] = target: T3, DNA dC->dU-editing enzyme APOBEC-3G (Homo sapiens, UniProt Q9HC16); type: functional
# T3 sequence (Q9HC16 whole entry, the tested form may be a part): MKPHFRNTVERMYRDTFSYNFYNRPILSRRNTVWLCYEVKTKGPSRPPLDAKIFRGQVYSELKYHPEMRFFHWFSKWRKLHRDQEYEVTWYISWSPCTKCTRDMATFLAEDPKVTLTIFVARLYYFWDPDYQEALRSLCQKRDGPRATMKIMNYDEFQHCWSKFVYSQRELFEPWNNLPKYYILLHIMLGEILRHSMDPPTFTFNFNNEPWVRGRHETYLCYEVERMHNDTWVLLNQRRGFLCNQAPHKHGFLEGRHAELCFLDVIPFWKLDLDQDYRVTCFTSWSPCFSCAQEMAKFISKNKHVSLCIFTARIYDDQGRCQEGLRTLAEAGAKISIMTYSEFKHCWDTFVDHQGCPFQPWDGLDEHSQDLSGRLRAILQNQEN
# [15] = target: T4, Carboxy-terminal domain RNA polymerase II polypeptide A small phosphatase 1 (Homo sapiens, UniProt Q9GZU7); assay: inhibitors of CTDSP1, concentration-response testing, biochemical assay, absorbance-based, actives from ultra-high-throughput screening (AID 540297); type: functional
# T4 sequence (Q9GZU7 whole entry): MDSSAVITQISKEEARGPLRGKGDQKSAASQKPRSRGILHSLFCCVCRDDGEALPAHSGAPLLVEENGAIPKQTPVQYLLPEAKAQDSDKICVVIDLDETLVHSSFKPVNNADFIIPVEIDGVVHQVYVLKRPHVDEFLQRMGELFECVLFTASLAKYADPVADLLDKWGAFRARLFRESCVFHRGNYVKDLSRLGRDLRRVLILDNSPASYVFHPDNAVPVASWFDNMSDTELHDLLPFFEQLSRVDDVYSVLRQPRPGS
# [16] = target: T5, Polyadenylate-binding protein 1 (Homo sapiens, UniProt P11940); assay: PABP poly(A) RNA binding inhibitors, primary screen, biochemical, fluorescence polarization, uHTS (AID 2014)
# T5 sequence (P11940 whole entry): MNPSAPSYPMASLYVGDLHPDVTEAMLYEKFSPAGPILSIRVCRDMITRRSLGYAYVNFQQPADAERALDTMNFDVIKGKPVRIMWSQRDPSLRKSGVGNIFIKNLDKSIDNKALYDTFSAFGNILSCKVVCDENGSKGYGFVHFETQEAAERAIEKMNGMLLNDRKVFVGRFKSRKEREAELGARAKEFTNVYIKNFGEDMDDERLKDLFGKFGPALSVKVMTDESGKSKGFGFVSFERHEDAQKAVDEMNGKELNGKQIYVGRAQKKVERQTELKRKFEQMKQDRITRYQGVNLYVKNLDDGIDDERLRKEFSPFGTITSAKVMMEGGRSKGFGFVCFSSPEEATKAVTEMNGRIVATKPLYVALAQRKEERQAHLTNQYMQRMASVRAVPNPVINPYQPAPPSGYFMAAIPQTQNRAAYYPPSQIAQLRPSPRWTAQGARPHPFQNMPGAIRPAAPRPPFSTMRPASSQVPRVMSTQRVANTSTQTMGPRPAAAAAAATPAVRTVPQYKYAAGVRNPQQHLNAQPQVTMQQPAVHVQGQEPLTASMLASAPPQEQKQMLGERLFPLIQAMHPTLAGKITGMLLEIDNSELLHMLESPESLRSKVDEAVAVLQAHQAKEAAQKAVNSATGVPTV
# [17] = target: T6, Heat shock factor protein 1 (Mus musculus, UniProt P38532); assay: HSF1 potentiators in luciferase reporter cells, confirmation, cell-based, NIH3T3, luminescence, dose retest (AID 435004); type: functional;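 further: stress induced by proteasome inhibitor MG132 added 30 min after compound; luciferase reporter driven by HSF1 response element in NIH3T3 cells; actives raise luminescence as potentiators of the MG132 stress response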
# T6 sequence (P38532 whole entry): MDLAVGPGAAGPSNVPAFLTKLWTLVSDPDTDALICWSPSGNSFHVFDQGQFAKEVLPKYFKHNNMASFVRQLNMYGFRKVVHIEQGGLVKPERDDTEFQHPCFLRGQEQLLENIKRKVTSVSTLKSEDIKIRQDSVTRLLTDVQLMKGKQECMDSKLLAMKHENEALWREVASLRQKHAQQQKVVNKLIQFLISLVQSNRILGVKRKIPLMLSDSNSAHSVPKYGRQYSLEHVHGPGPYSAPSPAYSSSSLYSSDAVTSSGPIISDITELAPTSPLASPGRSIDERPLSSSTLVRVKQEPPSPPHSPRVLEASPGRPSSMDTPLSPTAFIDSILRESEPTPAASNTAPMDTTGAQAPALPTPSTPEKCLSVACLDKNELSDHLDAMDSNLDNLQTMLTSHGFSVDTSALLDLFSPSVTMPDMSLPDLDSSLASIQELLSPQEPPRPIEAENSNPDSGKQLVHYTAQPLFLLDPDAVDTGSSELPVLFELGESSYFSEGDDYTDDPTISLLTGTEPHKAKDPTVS
# [18] = target: T7, Mannose-6-phosphate isomerase (Homo sapiens, UniProt P34949); assay: inhibitors of human PMI, primary screen, biochemical, fluorescence intensity, coupled assay (AID 1209)
# T7 sequence (P34949 whole entry): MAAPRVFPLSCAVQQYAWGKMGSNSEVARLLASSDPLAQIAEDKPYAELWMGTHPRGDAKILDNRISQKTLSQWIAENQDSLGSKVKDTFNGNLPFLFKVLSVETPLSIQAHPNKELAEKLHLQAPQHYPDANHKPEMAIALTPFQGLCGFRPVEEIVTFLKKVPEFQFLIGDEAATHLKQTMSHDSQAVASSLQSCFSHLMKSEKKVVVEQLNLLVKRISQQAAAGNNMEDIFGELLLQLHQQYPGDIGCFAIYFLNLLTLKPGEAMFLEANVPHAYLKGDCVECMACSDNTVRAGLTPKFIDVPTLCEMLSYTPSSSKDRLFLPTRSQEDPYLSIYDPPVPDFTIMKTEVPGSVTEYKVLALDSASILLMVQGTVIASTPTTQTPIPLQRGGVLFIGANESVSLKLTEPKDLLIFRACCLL
# [19] = target: T5, Polyadenylate-binding protein 1; assay: PABP inhibition in translation initiation, SAR follow-up (AID 435018); type: functional
# [20] = target: T2, Eukaryotic translation initiation factor 4H; assay: eIF4H inhibition in translation initiation, SAR follow-up (AID 435011); type: functional
# [21] = target: T3, DNA dC->dU-editing enzyme APOBEC-3G; assay: Dose Response confirmation of small molecule APOBEC3G DNA Deaminase Inhibitors via a fluorescence-based single-stranded DNA deaminase assay. [Related pubchem assays (depositor defined):AID493012, AID493028]; type: functional
# [22] = target: Induced myeloid leukemia cell differentiation protein Mcl-1 (Homo sapiens, UniProt Q07820); type: functional
# Chain of Induced myeloid leukemia cell differentiation protein Mcl-1 (Q07820 whole entry): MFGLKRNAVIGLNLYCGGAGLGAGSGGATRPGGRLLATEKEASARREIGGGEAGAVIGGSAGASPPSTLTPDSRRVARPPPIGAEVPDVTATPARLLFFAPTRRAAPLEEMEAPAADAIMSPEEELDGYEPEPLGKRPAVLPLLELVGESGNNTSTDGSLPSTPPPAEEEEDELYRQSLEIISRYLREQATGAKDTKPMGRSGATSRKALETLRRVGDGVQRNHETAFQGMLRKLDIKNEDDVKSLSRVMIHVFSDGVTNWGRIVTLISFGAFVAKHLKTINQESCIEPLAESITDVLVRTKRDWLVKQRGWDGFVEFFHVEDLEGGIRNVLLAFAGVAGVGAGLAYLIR
# [23] = target: DNA (cytosine-5)-methyltransferase 1 (Homo sapiens, UniProt P26358); assay: DNMT1 methyltransferase inhibitors, confirmation, biochemical, fluorescent molecular beacon (AID 602386); type: functional
# Procathepsin L = Procathepsin L (Homo sapiens, UniProt P07711)
# Aspartyl aminopeptidase = Aspartyl aminopeptidase (Plasmodium falciparum 3D7, UniProt Q8I2J3)
# HeLa = assay: HeLa cell cytotoxicity, dose response, cytotoxicity control, 24 h, cherry-picked samples (AID 504726); type: functional, cell-based; settings: Homo sapiens;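 further: potency for cytotoxicity as loss of luminescence signal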
# [24] = cytotoxicity in HEK-293T cells, dose response, cytotoxicity control for TCR NF-kB inhibitor project, luminescence, T-cell screen hits (AID 489026); type: functional, cell-based;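 further: cells exposed to compound about 14 hours before the viability readout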
# cells [25] = type: functional, cell-based; remark: listed apart in the source
# [26] = target: T8, Nuclear receptor subfamily 0 group B member 1 (Homo sapiens, UniProt P51843); type: functional, cell-based;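 further: HEK293T cells transfected with SF-1 and DAX-1 plus StAR promoter luciferase reporter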
# T8 sequence (P51843 whole entry): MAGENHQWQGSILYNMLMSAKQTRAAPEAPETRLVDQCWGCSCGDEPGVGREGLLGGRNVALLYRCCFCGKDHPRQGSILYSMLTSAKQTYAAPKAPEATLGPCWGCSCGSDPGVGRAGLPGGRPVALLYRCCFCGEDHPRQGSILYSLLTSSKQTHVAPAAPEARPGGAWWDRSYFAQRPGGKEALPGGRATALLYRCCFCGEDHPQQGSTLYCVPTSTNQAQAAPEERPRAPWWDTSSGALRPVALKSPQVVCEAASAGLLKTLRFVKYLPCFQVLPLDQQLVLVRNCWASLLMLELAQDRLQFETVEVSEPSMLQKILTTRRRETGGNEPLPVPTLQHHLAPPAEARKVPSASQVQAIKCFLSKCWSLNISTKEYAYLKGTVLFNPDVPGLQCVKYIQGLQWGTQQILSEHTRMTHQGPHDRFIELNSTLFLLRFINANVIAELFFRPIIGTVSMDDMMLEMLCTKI
compound,measurement,setting,value
CCOC(=O)c1c(C)n(-c2ccccc2)c2ccc(OCCN(C)C)cc12,CC50,[1],> 40 µM (active)
O=C(c1ccc2nc(-c3ccco3)c(-c3ccco3)nc2c1)N1CCC2(CC1)OCCO2,IC50,[2],> 100 µM (active)
same,IC50,[3],1.39 µM (active)
same,IC50,[4],2.45 µM (active)
same,IC50,[5],> 56.8 µM (inactive)
same,IC50,Estrogen receptor beta,8.97 µM (not active)
CCOC(=O)c1sc2nc(-c3ccco3)c3c(c2c1N)CC(C)(C)OC3,IC50,[3],5.26 µM (active)
same,IC50,[4],9.58 µM (active)
same,IC50,[5],> 56.8 µM (inactive)
C=CCn1c(SCc2ccc(Cl)cc2)nc2c1c(=O)[nH]c(=O)n2C,EC50,[6],> 12 µM (not active)
same,EC50,[7],29.3 µM (active)
same,EC50,cells [8],> 12 µM (not active)
same,EC50,[9],> 120 µM (not active)
same,EC50,[10],> 12 µM (not active)
same,EC50,[11],< 100 nM (active)
COc1ccc(C(CC(=O)N2CCCCC2)c2c(OC)cc(OC)c3c(-c4ccccc4)cc(=O)oc23)cc1 (configuration not stated),IC50,[12],10.4 µM (active)
same,IC50,[13],7.25 µM (active)
same,IC50,[14],25.9 µM (active)
same,IC50,[15],4.7 µM (active)
same,IC50,[16],33.4 µM (active)
Cc1ccc2cccnc2c1NC(=S)NC(=O)c1ccccc1,EC50,[17],> 260 µM (inactive)
same,IC50,[18],> 50 µM (not active)
Cc1cccc(C(=O)Nc2ccc(S(=O)(=O)N3CCOCC3)cc2C)c1,IC50,[12],4.44 µM (active)
same,IC50,[13],> 100 µM (inactive)
same,IC50,[14],9.37 µM (active)
same,IC50,[16],11.2 µM (active)
CCC(C)Nc1c2c(nc3c(-c4ccccc4)c(C)nn13)CCC2 (configuration not stated),CC50,[1],> 40 µM (active)
Cc1ccc(NC(=O)C2CCCN2C(=O)Oc2ccccc2)cc1 (configuration not stated),IC50,[19],> 100 µM (inactive)
same,IC50,[20],> 100 µM (inactive)
Oc1cccc2cc3cccc(O)c3c(O)c12,IC50,[21],16.9 µM (active)
same,IC50,[22],2.39 µM (active)
same,IC50,[3],38.3 µM (active)
same,IC50,[4],19.9 µM (active)
same,IC50,[23],1.9 µM (active)
Cc1ccc(Cl)cc1NC(=S)Nn1cnnc1,IC50,Procathepsin L,> 59.6 µM (not active)
same,IC50,Aspartyl aminopeptidase,2.06 µM (active)
Cc1cc(C)n2nc(C(=O)OC(C)C(=O)c3cc(C)c(C)cc3C)nc2n1 (configuration not stated),AC50,HeLa,> 350 µM (inactive)
Oc1ccccc1/C=N/c1ccccc1-c1nc2ccccc2[nH]1,AC50,HeLa,241 µM (active)
CC[C@]1(O)CC2CN(CCc3c([nH]c4ccccc34)[C@@](C(=O)OC)(c3cc4c(cc3OC)N(C=O)[C@H]3[C@@](O)(C(=O)OC)[C@H](OC(C)=O)[C@]5(CC)C=CCN6CC[C@]43[C@@H]65)C2)C1 (some centres not stated) [VINCRISTINE SULFATE],EC50,[6],0.047 µM (active)
same,IC50,[24],> 80 µM (inactive)
same,EC50,[7],< 0.1 µM (active)
same,EC50,cells [8],0.063 µM (active)
same,EC50,[9],< 0.1 µM (active)
same,EC50,[10],0.055 µM (active)
same,IC50,cells [25],> 67.5 µM (inactive)
same,IC50,[26],> 278 nM (active)
same,EC50,[11],< 100 nM (active)
